In US20160024057A1, “INDAZOLE RETINOIC ACID RECEPTOR-RELATED ORPHAN RECEPTOR MODULATORS AND USES THEREOF” (INNOV17 LLC, priority 2014, published 2016):

Legend:
Type in all cases: cell-based
IL-17A = assay: Human TH17 cytokine inhibition measured by ELISA: IL-17A; settings: human CD4+ T cells under TH17-polarizing conditions, 3 days, supernatant ELISA
Procedure: (§1) Human TH17 Cytokine Inhibition as Measured by ELISA
(§2) Peripheral blood mononuclear cells (PBMCs) were sourced from freshly prepared leukocyte enriched plasma (buffy coat) from healthy donors (New York Blood Center). PBMCs were isolated by density gradient centrifugation using Ficoll-Paque™ PLUS (GE Healthcare). Human CD4+ T cells were seeded into 96-well plates (5×10^4 cells/well) and activated with plate-bound anti-human (h)-CD3 antibody and soluble h-aCD28 (both at 1 ug/ml; eBioscience) and differentiated into TH17 cells with 20 ng/mL h-IL-6, 5 ng/mL h-TGF-β1, 10 ng/mL h-IL-23 (eBioscience) and 10 ng/mL IL-1β (Miltenyi Biotec) in serum-free TexMACS Medium (Miltenyi Biotec) supplemented with 1% Penicillin/Streptomycin (Lonza) for 3 days. CD4+ T cells propagated under TH17-polarizing conditions were cultured in the presence or absence of various concentrations of compounds with a final concentration of 0.1% DMSO. Supernatants were collected and stored at −20° C. until assayed for IL-17A, IL-17F and IL-21 levels by “Ready-Set-Go” ELISA kits (eBioscience) as per manufacturer's instructions. Endpoint absorbance was read at 450 nm using a microplate reader (Perkin Elmer).

IL-17F = assay: Human TH17 cytokine inhibition measured by ELISA: IL-17F; settings: 72 h; human CD4+ T cells under TH17-polarizing conditions, 3 days, supernatant ELISA
Procedure: as §1, §2

IL-21 = assay: Human TH17 cytokine inhibition measured by ELISA: IL-21; settings: 72 h; human CD4+ T cells under TH17-polarizing conditions, 3 days, supernatant ELISA
Procedure: as §1, §2

IL-22 = assay: Human TH17 cytokine inhibition measured by ELISA: IL-22; settings: 72 h; human CD4+ T cells under TH17-polarizing conditions, 3 days, supernatant ELISA

Structure (SMILES)	IC50 (IL-17A; 72 h) [µM]	IC50 (IL-17F) [µM]	IC50 (IL-21) [µM]	IC50 (IL-17A) [µM]	IC50 (IL-22) [µM]
C[C@@H]1C[C@H](Cn2ncc3cc(-c4cn[nH]c4)ccc32)CN1S(=O)(=O)c1ccccc1 (racemic) [Example 33, rac.-cis-1-((-5-methyl-1-(phenylsulfonyl)pyrrolidin-3-yl)methyl)-5-(1H-pyrazol-4-yl)-1H-indazole]	< 10	< 10	< 10	–	–
O=C(Cc1ccccc1)N1CCC(Cn2ncc3cc(-c4cn[nH]c4)ccc32)CC1 [Example 7, 1-(4-((5-(1H-pyrazol-4-yl)-1H-indazol-1-yl)methyl)piperidin-1-yl)-2-phenylethanone]	< 10	< 10	< 10	–	–
CC1(C)CC(Cn2ncc3cc(-c4cn[nH]c4)ccc32)CN1C(=O)Cc1ccccc1 (centres unmarked) [Example 19, 1-(4-((5-(1H-pyrazol-4-yl)-1H-indazol-1-yl)methyl)-2,2-dimethylpyrrolidin-1-yl)-2-phenylethanone]	< 10	< 10	–	–	–
O=S(=O)(c1ccccc1)N1CCC(Cn2ncc3cc(-c4cn[nH]c4)ccc32)CC1 [Example 30, 1-((1-(phenylsulfonyl)piperidin-4-yl)methyl)-5-(1H-pyrazol-4-yl)-1H-indazole]	< 10	< 10	< 10	–	< 10
O=S(=O)(c1ccc(F)cc1)N1CCC(Cn2ncc3cc(-c4cn[nH]c4)ccc32)CC1 [Example 37, 1-((1-((4-fluorophenyl)sulfonyl)piperidin-4-yl)methyl)-5-(1H-pyrazol-4-yl)-1H-indazole]	< 10	< 10	–	–	–
N#Cc1ccc(S(=O)(=O)N2CCC(Cn3ncc4cc(-c5cn[nH]c5)ccc43)CC2)cc1 [Example 38, 4-(4-((5-(1H-pyrazol-4-yl)-1H-indazol-1-yl)methyl)piperidin-1-ylsulfonyl)benzonitrile]	< 10	< 10	–	–	–
O=S(=O)(c1cccnc1)N1CCC(Cn2ncc3cc(-c4cn[nH]c4)ccc32)CC1 [Example 39, 5-(1H-pyrazol-4-yl)-1-((1-(pyridin-3-ylsulfonyl)piperidin-4-yl)methyl)-1H-indazole]	< 10	< 10	–	–	–
N#Cc1cccc(S(=O)(=O)N2CCC(Cn3ncc4cc(-c5cn[nH]c5)ccc43)CC2)c1 [Example 43, 3-((4-((5-(1H-pyrazol-4-yl)-1H-indazol-1-yl)methyl)piperidin-1-yl)sulfonyl)benzonitrile]	< 10	< 10	–	–	–
O=S(=O)(c1ccc(C(F)F)cc1)N1CCC(Cn2ncc3cc(-c4cn[nH]c4)ccc32)CC1 [Example 44, 1-((1-((4-(difluoromethyl)phenyl)sulfonyl)piperidin-4-yl)methyl)-5-(1H-pyrazol-4-yl)-1H-indazole]	< 10	< 10	–	–	–

Now from value to compound:

IC50 (IL-17A; 72 h) [µM]	IC50 (IL-17F) [µM]	IC50 (IL-21) [µM]	IC50 (IL-17A) [µM]	IC50 (IL-22) [µM]	Structure (SMILES)
–	–	–	< 10	–	C[C@@H]1C[C@@H](Cn2ncc3cc(-c4cn[nH]c4)ccc32)CN1S(=O)(=O)c1ccccc1 (racemic) [Example 34, rac.-trans-1-((-5-methyl-1-(phenylsulfonyl)pyrrolidin-3-yl)methyl)-5-(1H-pyrazol-4-yl)-1H-indazole]
< 10	< 10	< 10	–	–	C[C@H]1C[C@@H](Cn2ncc3cc(-c4cn[nH]c4)ccc32)CN1C(=O)CCc1ccccc1 (racemic) [Example 46, rac.-cis-1-(4-((5-(1H-pyrazol-4-yl)-1H-indazol-1-yl)methyl)-2-methylpyrrolidin-1-yl)-3-phenylpropan-1-one]
< 10	< 10	< 10	–	–	C[C@@H]1C[C@@H](Cn2ncc3cc(-c4cn[nH]c4)ccc32)CN1C(=O)CCc1ccccc1 (racemic) [Example 47, rac.-trans-1-(4-((5-(1H-pyrazol-4-yl)-1H-indazol-1-yl)methyl)-2-methylpyrrolidin-1-yl)-3-phenylpropan-1-one]
< 10	< 10	< 10	–	–	O=C(CCc1ccccc1)N1CCC(Cn2ncc3cc(-c4cn[nH]c4)ccc32)CC1 [Example 3, 1-(4-((5-(1H-pyrazol-4-yl)-1H-indazol-1-yl)methyl)piperidin-1-yl)-3-phenylpropan-1-one]
< 10	< 10	< 10	–	–	O=C(CC1CCCCC1)N1CCC(Cn2ncc3cc(-c4cn[nH]c4)ccc32)CC1 [Example 4, 1-(4-((5-(1H-pyrazol-4-yl)-1H-indazol-1-yl)methyl)piperidin-1-yl)-2-cyclohexylethanone]
< 10	< 10	< 10	–	–	O=C(CCCc1ccccc1)N1CCC(Cn2ncc3cc(-c4cn[nH]c4)ccc32)CC1 [Example 8, 1-(4-((5-(1H-pyrazol-4-yl)-1H-indazol-1-yl)methyl)piperidin-1-yl)-4-phenylbutan-1-one]
< 10	< 10	< 10	–	< 10	O=S(=O)(Cc1ccccc1)N1CCC(Cn2ncc3cc(-c4cn[nH]c4)ccc32)CC1 [Example 32, 1-((1-(benzylsulfonyl)piperidin-4-yl)methyl)-5-(1H-pyrazol-4-yl)-1H-indazole]
< 10	< 10	< 10	–	–	CC1(C)CC(Cn2ncc3cc(-c4cn[nH]c4)ccc32)CN1S(=O)(=O)c1ccccc1 (centres unmarked) [Example 35, 1-((5,5-dimethyl-1-(phenylsulfonyl)pyrrolidin-3-yl)methyl)-5-(1H-pyrazol-4-yl)-1H-indazole]
< 10	< 10	–	–	–	Cc1ccc(S(=O)(=O)N2CCC(Cn3ncc4cc(-c5cn[nH]c5)ccc43)CC2)cc1 [Example 42, 5-(1H-pyrazol-4-yl)-1-((1-tosylpiperidin-4-yl)methyl)-1H-indazole]
